# According to the supplement of paper PMC10920090:
# Experiments:
# MDA-MB-231 [1] = assay: drug sensitivity score (DSS), cytotoxicity CellTox Green; higher = more cytotoxic; extreme values may be limits of the assay; settings: 72 h
# MDA-MB-231 [2] = assay: drug sensitivity score (DSS), cell viability CellTiter-Glo; higher = more sensitive; extreme values may be limits of the assay; settings: 72 h
# 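Wherever drug sensitivity score (DSS), cytotoxicity CellTox Green is given: DSS summarises each dose–response curve by combining IC50, EC50, maximal inhibition and efficacy across drug concentrations.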
Compound,drug sensitivity score (MDA-MB-231 [1]; shRNA: shPPFIA1_1),drug sensitivity score (MDA-MB-231 [1]; shRNA: shScramble),drug sensitivity score (MDA-MB-231 [2]; shRNA: shPPFIA1_1),drug sensitivity score (MDA-MB-231 [2]; shRNA: shScramble)
C[C@@H]1CN(Cc2ccc(F)cc2)[C@@H](C)CN1C(=O)c1cc2c(C(=O)C(=O)N(C)C)cn(C)c2cc1Cl [Talmapimod],0 DSS,0 DSS,0 DSS,0 DSS
CC[C@@H]1C(=O)OC[C@@H]1Cc1cncn1C [Pilocarpine],0 DSS,0 DSS,0 DSS,0 DSS
CCNC(=O)C[C@@H]1N=C(c2ccc(Cl)cc2)c2cc(OC)ccc2-n2c(C)nnc21,0 DSS,0 DSS,0 DSS,6.2 DSS
Cc1cn(-c2cc(NC(=O)c3ccc(C)c(Nc4nccc(-c5cccnc5)n4)c3)cc(C(F)(F)F)c2)cn1 [Nilotinib],4.5 DSS,0.2 DSS,0 DSS,3.8 DSS
CNC(=O)c1ccccc1Nc1nc(Nc2ccc3c(c2OC)CCC[C@H](N2CCN(CCO)CC2)C3)ncc1Cl,8.9 DSS,0 DSS,4 DSS,6.1 DSS
Cc1cnc(NC(=O)Nc2cc(Br)c(C)cc2OC[C@@H]2CNCCO2)cn1 [Rabusertib],0 DSS,0 DSS,5.3 DSS,2 DSS
O=C(CCBr)N1CCN(C(=O)CCBr)CC1 [Pipobroman],0 DSS,0 DSS,0 DSS,0 DSS
CCOc1cc2ncc(C#N)c(Nc3ccc(F)c(Cl)c3)c2cc1NC(=O)/C=C/CN(C)C [Pelitinib],2.7 DSS,0 DSS,14.9 DSS,21.1 DSS
O=S(=O)(c1cccc2cnccc12)N1CCCNCC1 [Fasudil],1.6 DSS,2.1 DSS,2.6 DSS,1.4 DSS
COc1cc2c(Nc3ccc(Cl)c(Cl)c3F)ncnc2cc1OC[C@@H]1C[C@@H]2CN(C)C[C@@H]2C1 [XL-647],0 DSS,0 DSS,0 DSS,0 DSS
C=CC[C@@H]1/C=C(\C)C[C@H](C)C[C@H](OC)[C@H]2O[C@@](O)(C(=O)C(=O)N3CCCC[C@H]3C(=O)O[C@H](/C(C)=C/[C@@H]3CC[C@@H](O)[C@H](OC)C3)[C@H](C)[C@@H](O)CC1=O)[C@H](C)C[C@@H]2OC [Tacrolimus],0 DSS,0 DSS,0 DSS,0 DSS
Clc1ccc(C(c2ccccc2Cl)C(Cl)Cl)cc1 (centres undefined) [Mitotane],0 DSS,0 DSS,0 DSS,0 DSS
CC[C@H](CC#N)OC(=O)N[C@@H](C)c1cccc(NC(=O)Nc2ccc(-c3cnco3)c(OC)c2)c1 [AVN944],0 DSS,0 DSS,0 DSS,5.4 DSS
CCCCc1nc2cc(/C=C/C(=O)NO)ccc2n1CCN(CC)CC [Pracinostat],8.1 DSS,8.5 DSS,10.6 DSS,11.9 DSS
CC[C@H](C)C(=O)O[C@H]1C[C@H](O)C=C2C=C[C@H](C)[C@H](CC[C@@H](O)C[C@@H](O)CC(=O)O)[C@H]21 [Pravastatin],0 DSS,0 DSS,2.5 DSS,1.8 DSS
CN(C)Cc1c(C(=O)NCCOc2ccc(C(=O)NO)cc2)oc2ccccc12 [Abexinostat],16.6 DSS,10.4 DSS,3.4 DSS,12.2 DSS
CC[C@@]1(O)C(=O)OCc2c1cc1n(c2=O)Cc2cc3ccccc3nc2-1 [Camptothecin],2 DSS,0.7 DSS,0.8 DSS,10.4 DSS
S=P(N1CC1)(N1CC1)N1CC1 [Thio-TEPA],0 DSS,0 DSS,0.9 DSS,0.9 DSS
NS(=O)(=O)NCCNc1nonc1/C(=N/O)Nc1ccc(F)c(Br)c1 [Epacadostat],0 DSS,0 DSS,0 DSS,0 DSS
O=C(O)C(=O)O.[NH-][C@@H]1CCCC[C@H]1[NH-].[Pt+2] [Oxaliplatin],0 DSS,0 DSS,0 DSS,2 DSS
C[C@@]1(C(=O)Nc2ccc(F)nc2)CCCN1c1nc(Nc2cc(C3CC3)n[nH]2)c2cccn2n1,0.8 DSS,0 DSS,0.2 DSS,3.7 DSS
CN(Cc1cnc2nc(N)nc(N)c2n1)c1ccc(C(=O)N[C@@H](CCC(=O)O)C(=O)O)cc1 [Methotrexate],0 DSS,0 DSS,2.8 DSS,4 DSS

Compound,drug sensitivity score (MDA-MB-231 [1]; shRNA: shPPFIA1_1),drug sensitivity score (MDA-MB-231 [1]; shRNA: shScramble),drug sensitivity score (MDA-MB-231 [2]; shRNA: shPPFIA1_1),drug sensitivity score (MDA-MB-231 [2]; shRNA: shScramble)
Cc1ccc(C(=O)N(CCCN)[C@@H](c2oc3cc(Cl)ccc3c(=O)c2Cc2ccccc2)C(C)C)cc1,9.8 DSS,8.7 DSS,0 DSS,6.3 DSS
C[C@]12CC[C@@H]3c4ccc(OC(=O)N(CCCl)CCCl)cc4CC[C@H]3[C@@H]1CC[C@@H]2O [Estramustine],0 DSS,0 DSS,0 DSS,0 DSS
CCCS(=O)(=O)Nc1ccc(F)c(C(=O)c2c[nH]c3ncc(-c4ccc(Cl)cc4)cc23)c1F [Vemurafenib],0 DSS,1.8 DSS,0 DSS,0 DSS
O=C(NOC[C@H](O)CO)c1ccc(F)c(F)c1Nc1ccc(I)cc1F,2 DSS,4.7 DSS,0 DSS,9.8 DSS
Cn1cnc2c(F)c(Nc3ccc(Br)cc3Cl)c(C(=O)NOCCO)cc21 [Selumetinib],3.8 DSS,8 DSS,0.3 DSS,5.2 DSS
COc1ccc2c(OCc3nnc4ccc(-c5ccccc5)nn34)ccnc2c1 [AMG-208],0 DSS,0 DSS,1.9 DSS,8.6 DSS
CNC(=O)c1ccc(N2C(=S)N(c3ccc(C#N)c(C(F)(F)F)c3)C(=O)C2(C)C)cc1F [Enzalutamide],0 DSS,0 DSS,0 DSS,0 DSS
CCC1(c2ccc(N)cc2)CCC(=O)NC1=O (centres undefined) [Aminoglutethimide],0 DSS,0 DSS,0 DSS,0 DSS
Nc1cccc2c1CN(C1CCC(=O)NC1=O)C2=O (centres undefined) [Lenalidomide],0 DSS,0 DSS,0 DSS,0 DSS
NC(=O)c1ccc(I)c([N+](=O)[O-])c1 [Iniparib],0 DSS,0 DSS,0 DSS,0 DSS
COc1cc2ncnc(Oc3cccc(NC(=O)Nc4cc(C(C)(C)C(F)(F)F)on4)c3)c2cc1OC,4 DSS,7.8 DSS,0 DSS,7.7 DSS
CN(C)C[C@@H]1CCn2cc(c3ccccc32)C2=C(C(=O)NC2=O)c2cn(c3ccccc23)CCO1 [Ruboxistaurin],3.8 DSS,5.5 DSS,7.2 DSS,7 DSS
CS(=O)(=O)c1ccc(C(=O)Nc2ccc(Cl)c(-c3ccccn3)c2)c(Cl)c1 [Vismodegib],2.2 DSS,0 DSS,0 DSS,0 DSS
O=[N+]([O-])c1ccc2c(c1)S(=O)(=O)C=C2 [Stattic],4.4 DSS,7.2 DSS,6.6 DSS,9.4 DSS
N[C@@H](Cc1ccc(N(CCCl)CCCl)cc1)C(=O)O [Melphalan],0 DSS,0 DSS,0 DSS,0.4 DSS
COc1cc(Nc2c(C#N)cnc3cc(OCCCN4CCN(C)CC4)c(OC)cc23)c(Cl)cc1Cl [Bosutinib],6.2 DSS,6.3 DSS,6.3 DSS,9.3 DSS
Oc1c2ccccc2c2c3c(cccc13)N=N2,0 DSS,0 DSS,0 DSS,0.5 DSS
c1ccc(Cn2c(-c3ccc(OC[C@H](C4CCNCC4)n4c(-c5ccccc5)nc5ccccc54)cc3)nc3ccccc32)cc1 [deltarasin],9.2 DSS,7.3 DSS,5.7 DSS,7.3 DSS
COc1cc(CCc2cc(NC(=O)c3ccc(N4CC(C)NC(C)C4)cc3)n[nH]2)cc(OC)c1 (centres undefined) [AZD4547],0 DSS,0 DSS,0 DSS,0 DSS
Cc1ncc(Cl)cc1NCc1ccc(C(=O)N[C@@H](CC2CCCC2)C(=O)NC2CC2)s1,0 DSS,0 DSS,0 DSS,0 DSS
Cn1cc(CNCC2CCN(c3ncc(C(=O)NO)cn3)CC2)c2ccccc21 [Quisinostat],8.6 DSS,8.2 DSS,8.8 DSS,11.2 DSS
C[C@@H](C(=O)O)c1ccc(-c2ccccc2)c(F)c1 [Tarenflurbil],0 DSS,0 DSS,0 DSS,0 DSS

Compound,drug sensitivity score (MDA-MB-231 [1]; shRNA: shPPFIA1_1),drug sensitivity score (MDA-MB-231 [1]; shRNA: shScramble),drug sensitivity score (MDA-MB-231 [2]; shRNA: shPPFIA1_1),drug sensitivity score (MDA-MB-231 [2]; shRNA: shScramble)
CCn1nnc2c(N3CCOCC3)nc(-c3ccc(NC(=O)Nc4ccc(C(=O)N5CCN(C)CC5)cc4)cc3)nc21 [PKI-402],0 DSS,0 DSS,1.1 DSS,9.4 DSS
CCN(CC)CCN(Cc1ccc(-c2ccc(C(F)(F)F)cc2)cc1)C(=O)Cn1c(SCc2ccc(F)cc2)nc(=O)c2c1CCC2 [Darapladib],13.1 DSS,0 DSS,0 DSS,0 DSS
CCN1CCN(Cc2ccc(Nc3ncc(F)c(-c4cc(F)c5nc(C)n(C(C)C)c5c4)n3)nc2)CC1 [Abemaciclib],0.9 DSS,0 DSS,0.9 DSS,0 DSS
c1ccc([C@H]2CN3CCSC3=N2)cc1 [Levamisole],0 DSS,0 DSS,0 DSS,0 DSS
CC/C(=C(\c1ccc(O)cc1)c1ccc(OCCN(C)C)cc1)c1ccccc1 [4-hydroxytamoxifen],2.2 DSS,3.3 DSS,2.7 DSS,4.8 DSS
Cn1ncc(Cl)c1-c1cc(C(=O)N[C@H](CN)Cc2ccc(F)c(F)c2)oc1Cl [Uprosertib],0 DSS,0 DSS,0 DSS,0 DSS
COc1ccc(S(=O)(=O)Nc2cccnc2Nc2ccc(O)cc2)cc1 [ABT-751],2.1 DSS,0.1 DSS,0 DSS,4.5 DSS
CC(C)(C)c1cc(NC(=O)Nc2ccc(-c3cn4c(n3)sc3cc(OCCN5CCOCC5)ccc34)cc2)no1 [Quizartinib],0 DSS,0 DSS,0 DSS,0 DSS
CO[C@@H](C(=O)N1Cc2[nH]nc(NC(=O)c3ccc(N4CCN(C)CC4)cc3)c2C1)c1ccccc1 [Danusertib],0 DSS,0.2 DSS,0 DSS,0 DSS
O=C(c1ccc(OCCN2CCCCC2)cc1)c1c(-c2ccc(O)cc2)sc2cc(O)ccc12 [Raloxifene],0.4 DSS,0 DSS,3.5 DSS,3.1 DSS
CCC(C)n1ncn(-c2ccc(N3CCN(c4ccc(OCC5COC(Cn6cncn6)(c6ccc(Cl)cc6Cl)O5)cc4)CC3)cc2)c1=O (centres undefined) [Itraconazole],0 DSS,0 DSS,4.8 DSS,5.6 DSS
Nc1nc2[nH]cc(CCc3ccc(C(=O)N[C@@H](CCC(=O)O)C(=O)O)cc3)c2c(=O)[nH]1 [Pemetrexed],0 DSS,0 DSS,5.6 DSS,8.3 DSS
CCc1c(C(=O)C(N)=O)c2c(OCC(=O)O)cccc2n1Cc1ccccc1 [Varespladib],0 DSS,0 DSS,0 DSS,0 DSS
Cn1cc(C2=Nc3cc(NC(=O)C(N)C4CCCCC4)cc4c3C2=CNNC4=O)cn1 (centres undefined),3 DSS,0.8 DSS,7.8 DSS,9.4 DSS
Cn1cc(-c2ccc3nnc(Sc4ccc5ncccc5c4)n3n2)cn1 [SGX-523],0 DSS,0.9 DSS,0.9 DSS,0 DSS
CCN(CC)CCCC(C)Nc1ccnc2cc(Cl)ccc12 (centres undefined) [Chloroquine],5.2 DSS,7.2 DSS,8.7 DSS,9.4 DSS
O[C@H]1CC[C@H](Nc2ncc3nc(Nc4c(F)cc(F)cc4F)n([C@H]4CCOC4)c3n2)CC1 [Tanzisertib],0 DSS,0 DSS,0 DSS,3.1 DSS
Nc1nc(Cl)nc2c1ncn2[C@H]1C[C@H](O)[C@@H](CO)O1 [Cladribine],0 DSS,0 DSS,0 DSS,3.3 DSS
CNC(=O)c1cccc2cc(Oc3ccnc4cc(OCC5(N)CC5)c(OC)cc34)ccc12 [Lucitanib],0.3 DSS,1.2 DSS,0 DSS,0.7 DSS
COc1cc(F)c(F)c(Nc2ccc(I)cc2F)c1NS(=O)(=O)C1(C[C@H](O)CO)CC1 [Refametinib],10.5 DSS,18.6 DSS,6 DSS,10.6 DSS
CCCCC/C=C/C=C1/C(=O)C=C[C@@H]1C/C=C\CCCC(=O)O [15D-PGJ2],0 DSS,0 DSS,0 DSS,0 DSS
c1cc(CN2CCCNCCNCCCNCC2)ccc1CN1CCCNCCNCCCNCC1 [Plerixafor],0 DSS,0 DSS,0 DSS,0 DSS
